Entries after “also recorded” stand apart in the source; their conditions may differ.

The values below come from US20130316349A1, “N-METHYLPURINE DNA GLYCOSYLASE AND POLYMERASE BETA AS BIOMARKERS FOR ALKYLATOR CHEMOTHERAPY POTENTIATION” (University of Pittsburgh - Of the Commonwealth System of …, priority 2010, published 2013).

One data set relates to PARG mRNA. In words: qRT-PCR of PARG mRNA in LN428/MPG cells stably expressing shRNA. Particulars: LN428/MPG cells stably expressing each shRNA. The format is cell-based. The procedure: Human WT MPG, mutant MPG (N169D), WT Flag Polβ and Flag Pol β (K72A) expressing cell lines were developed by transfecting cells with corresponding plasmids using FuGene™ 6 Transfection Reagent (Roche, Indianapolis, Ind.) according to the manufacturer's protocol. Transfected cells were cultured in G418 and/or Puromycin for 2 weeks and individual clones stably expressing human MPG or Pol β were selected. Lentiviral particles were generated by co-transfection of 4 plasmids, pLKO.1-puro-TurboGFP (control, expresses GFP) or pCMV-tGFP-PARG (PARG shRNA, co-expresses PARG shRNA and GFP) together with pMD2.g(VSVG), pVSV-REV and PMDLg/pRRE, into 293-FT cells (Zufferey et al., J. Virol., 72:9873-9880, 1998; Zufferey et al., Nat. Biotechnol., 15:871-875, 1997) using FuGene™ 6 Transfection Reagent (Roche, Indianapolis, Ind.), as described previously (Tang et al., Mol. Cancer Res. 8(1):67-79, 2010). […] Cells expressing copGFP only or both copGFP and PARG specific shRNA were isolated by fluorescence activated cell sorting (FACS).
Expression of MPG, Polβ and PARP1 in the cell lines was measured by quantitative RT-PCR using an Applied Biosystems StepOnePlus™ system as described previously (Tang et al., Mol Cancer Res 8:67-79, 2010). […] Each sample was analyzed in triplicate and the results are an average of all three analyses. […]
A general note: Real-time PCR tracks product formation cycle by cycle.

In data set [1] the test system is degradation of PAR (PARG). The data set can be described thus: Immunoblot for PAR after TMZ exposure in LN428/MPG cells. The format is cell-based. To be noted: 1.5 mM TMZ. The procedure:
Twenty microgram of protein was loaded on a precast 4-20% NuPAGE™ Tris-Glycine gel (Invitrogen, Carlsbad, Calif.). For whole cell extracts used in probing Poly(ADP-ribose) (PAR), 3×10^6 cells were seeded into a 100 mm cell culture dish 24 hours before drug treatment. Cells were then treated with TMZ (1.5 mM) or DMSO (control) for different periods of time. After treatment, cells were washed twice with cold PBS, collected and lysed in 400 μL of 2×Laemmli buffer (2% SDS, 20% Glycerol, 62.5 mM Tris-HCl pH6.8, 0.01% Bromophenol Blue). Samples were boiled for 8 minutes and extracts from approximately 1.5×10^5 cells were loaded each lane on a 4-12% pre-cast NuPAGE™ Tris-Glycine gel (Invitrogen, Carlsbad, Calif.) for immunoblot analysis. The following primary antibodies were used in immunoblot assays: anti-human MPG (Mab; clone 506-3D) (Trivedi et al., Mol. Pharmacol, 2008); anti-Polβ (Mab clone 61; Thermo Fisher Scientific); anti-APE1 (EMD Biosciences); anti-PCNA (Santa Cruz); anti-poly(ADP-ribose) (PAR) (Clone 10H); anti-MGMT (Novus, Littleton, Colo.).
In general terms: In western blotting, separated proteins are transferred to a membrane and probed.

Another data set relates to LN428/MGMT/MPG cells. In words: Long-term cell survival assay (10 days). The format is cell-based. To be noted: pre- (4 μM) and co-treatment with PJ34 (2 μM); LN428/MGMT/MPG vs LN428/MGMT.
A further data set deals with LN428/MGMT cells. In words: Long-term cell survival assay (10 days). The format is cell-based. Particulars: pre- (4 μM) and co-treatment with PJ34 (2 μM).
A further data set concerns PARP. Particulars: PJ34 at 2 μM; cited from earlier work.
For the next data set, the system named is T98G cells. The data set can be described thus: Long-term cell survival assay (10 days). The format is cell-based. Particulars: 50 and 100 μM TMZ.
For data set [2], the system named is T98G/MPG/Polβ KD cells. The data set can be described thus: Long-term cell survival assay (10 days).
Procedure: (§1) Results were calculated from the average of three or four separate experiments and are reported as the percentage of treated cells relative to the cells without treatment (% control).
The next data set concerns T98G/MPG cells. The data set can be described thus: Long-term cell survival assay (10 days). Particulars: for ABT-888-induced potentiation of TMZ: T98G/MPG vs T98G, 50 and 100 μM TMZ, p<0.05 and p<0.01.
Data set [3] has as its system T98G/MPG/Polβ KD cells.
Procedure: as §1
The test system of data set [4] is LN428/MPG/Flag-APE1 cells. The data set can be described thus: Short-term cell survival assay (48 hours MTS assay). The class given is cell-based. Particulars: APE1 over-expressed in LN428/MPG. In general terms: Formazan colour is commonly taken as a measure of viable cells.
Procedure: as §1
Data set [5] relates to LN428/MPG cells (MPG over-expressing). The description is as above. The class given is cell-based. To be noted: MX 60 mM 30 min, then TMZ with MX 30 mM 48 hours; LN428/MPG vs LN428.
Procedure: as §1
Data set [6] deals with LN428/MPG/Flag-Pol β-K72A cells. The data set is described as above. Particulars: 5′ dRP lyase null mutant Polβ (K72A) over-expressed in LN428/MPG. The format is cell-based.
Procedure: as §1
For the next data set, the system named is LN428 cells. Described as above. The format is cell-based. To be noted: MX 60 mM 30 min, then TMZ with MX 30 mM 48 hours.
Data set [7] has as its system LN428/MPG/Flag-Polβ-WT cells. The description is as above. Particulars: WT Polβ over-expressed in LN428/MPG. The format is cell-based.
Procedure: as §1
Data set [8] concerns LN428 cells over-expressing mutant MPG (N169D). The description is as above. The class given is cell-based. Particulars: glycosylase dead mutant MPG (N169D) over-expressed in LN428.
Procedure: as §1

Procedure for LN428/MGMT cells: as §1
Procedure for LN428/MGMT/MPG cells: as §1
Procedure for T98G cells: as §1
Procedure for T98G/MPG cells: as §1

Regarding “PARG shRNA #4: MISSION TRC shRNA targeting PARG, SEQ ID NO: 12; used for PARG KD (CCGGGCTGAGCGAGATGTGGTTTATCTCGAGATAAACCACATCTCGCTCAGCTTTTTG)”, the “level of PARG mRNA (rank among five shRNA constructs)” value in the data set with PARG mRNA was “lowest”. For the same compound, in data set [1], the “degradation of PAR following exposure to TMZ” value is given as “greatly decreased the degradation of PAR”.

For `CN(C)CC(=O)Nc1ccc2[nH]c(=O)c3ccccc3c2c1` [PJ34], the entries for the “PJ34-induced potentiation of TMZ” value with LN428/MGMT/MPG cells and in the data set with LN428/MGMT cells were “substantially increased PJ34-induced potentiation of TMZ; also recorded: much higher in the MPG over expressing cells” and “sensitized cells to TMZ”, respectively. Besides, in the data set on PARP, the “level of PARP activation following exposure to TMZ” value is listed as “significantly reduced the level of PARP activation”.

Take “PARG shRNA #2: MISSION TRC shRNA targeting PARG, SEQ ID NO: 10 (CCGGCGATTGCATGTCACTTACGAACTCGAGTTCGTAAGTGACATGCAATCGTTTTTG)”: the “level of PARG mRNA (rank among five shRNA constructs)” value in the data set with PARG mRNA is “second lowest”. The “degradation of PAR following exposure to TMZ” value in data set [1] is “greatly decreased the degradation of PAR”.

Take `C[C@]1(c2nc3c(C(N)=O)cccc3[nH]2)CCCN1` [ABT-888]: the “ABT-888-induced potentiation of TMZ” value is “sensitized T98G cells to TMZ” in the data set with T98G cells, “significantly increased the potentiation induced by ABT-888” with T98G/MPG cells and “significantly increased A8T-888-induced potentiation of TMZ” in the data set on T98G/MPG cells (listed as A8T-888). Further, the “cells killed by ABT-888 treatment alone” value with T98G/MPG/Polβ KD cells [2] (T98G/MPG/Polβ KD cells, no TMZ) is given as “about 70%”; in the data set on T98G/MPG cells (T98G/MPG cells, no TMZ), ~30%. Further, the “ABT-888-induced potentiation of TMZ (cytotoxicity of TMZ and ABT-888 vs TMZ alone)” value with T98G/MPG/Polβ KD cells [2] (T98G/MPG/Polβ KD, 25 and 50 μM TMZ, p<0.01) is “significantly increased ABT-888-induced potentiation of TMZ; also recorded: significantly increased cytotoxicity compared to TMZ treatment alone”.

A word on the IC50: it is the concentration that gives 50% inhibition. High values mean lower potency, low ones higher potency. As to `Cn1nnc2c(C(N)=O)ncn2c1=O` [TMZ, 3-methyl-2-oxo-1,3,4,5,8-pentazabicyclo[4.3.0]nona-4,6,8-triene-7-carbooxamide], the IC50 in the data set on T98G/MPG/Polβ KD cells [3] was < 25 µM.

Take `CON` [MX, Methoxyamine]: the “MX-induced potentiation of TMZ” value was “did not alter the potentiation of TMZ induced by MX” in data set [4]; “dramatically increases MX-induced potentiation of TMZ; also recorded: much higher in the MPG over-expressing cells” in [5]; “did not affect MX-induced potentiation of TMZ” in data set [6]; “sensitized both cell lines to TMZ” in the data set with LN428 cells; “dramatically reduced the potentiation induced by MX” in [7]; “did not sensitize LN428 cells to a combined treatment of MX and TMZ” in [8].
